# In patent US20250186379A1, “METHODS AND AGENTS FOR DECREASING INSULIN RESISTANCE” (Whitehead Institute for Biomedical Research, priority 2021, published 2025):
# “Also recorded” adds a separate entry of the source.
# Tested on: IR condensates
# Test: Imaging of IR puncta/condensates (immunofluorescence, IR-GFP) in HepG2 cells
# Type: cell-based, human
# Description: For insulin sensitivity and resistance experiments in HepG2 cells, cells were washed with EMEM once and cultured in EMEM for two days. […] To wash out insulin, cells were washed in EMEM seven times, which includes three quick washes, three 5 min washes and a long 20 minute-wash in EMEM at 37° C. In order to investigate insulin response, cells were acutely treated for 5 min with insulin diluted in EMEM supplemented with 1.25% fatty acid-free BSA at 37° C. with 5% CO2 in a humidified incubator.
# Metformin (SIGMA, D150959-5G) was resuspended in sterile water to a concentration of 1M and diluted to the reported concentrations in the figures in cell media. […]
# HepG2 cells, human liver spheroids and human tissue liver sections were fixed in 4% PFA (VWR, BT140770-10X10) in PBS for 10 min at room temperature. Cells were washed in PBS three times for 5 min and then blocked with 4% IgG-free BSA (VWR, 102643-516) for 15-60 min at room temperature. Cells were then incubated with 1:500 primary antibody in 4% IgG-free BSA at 4° C. overnight. The next day, cells were washed three times with PBS and incubated with 1:500 secondary antibodies in 4% IgG-free BSA at room temperature for 1 hr covered in foil. Cells were washed three times with PBS for 5 min. DNA was stained using 1:5000 Hoechst in PBS for 5 min at RT. Cells were washed three times with PBS for 5 min, stored at 4° C. until imaging. For tissue sections, samples were mounted using Vectashield mounting media (Vector Laboratories, Inc, H-1000). LSM880 microscope with Airyscan detector (ZEISS) was used for image acquisition. Images were then processed using Fiji/ImageJ v2.1.0/153c.
# Cells expressing endogenous IR tagged with GFP were grown on 35 mm glass bottom dishes (MatTek Corporation, P35G-1.5-20-C). Cells were imaged at 37° C. using the SM880 Microscope with Airyscan detector with 63× objective and Zen Black software (ZEISS) at the W.M. Keck Microscopy Facility, MIT. Images were then processed using Fiji/ImageJ v2.1.0/153c.
# To quantify IR fluorescent signal in puncta, Fiji/ImageJ v2.1.0/153c was used. A circle or an oval was drawn around IR puncta using the oval selection tool and the average fluorescence intensity in the circle/oval (=in the puncta) was determined using the measure tool on Fiji. Background was then subtracted as previously described. To quantify IR fluorescent signal at puncta in various cellular compartments, applicant identified the location of the plasma membrane, cytoplasm, nucleus and RNA FISH spots as follows. The plasma membrane location was identified based on IR immunofluorescence signal, IR-GFP fluorescent signal or CK18 immunofluorescence signal or cell edge. The nucleus was determined by the Hoechst stain for immunofluorescence and tc-PALM experiments or by IR-GFP fluorescence when HepG2 cells expressing IR-GFP were imaged. Given the overlap between Hoechst fluorescence and GFP fluorescence, artefactual green fluorescence coming from the Hoechst confounded IR puncta identification in the nucleus. Since the differences in IR puncta intensity and concentration between cytoplasm and nucleus in HepG2 cells was clear, nuclear outline was easily drawn based on IR-GFP fluorescent signal. Cytoplasm was considered the region between the plasma membrane and the nucleus. RNA FISH spots were identified based on RNA FISH probe fluorescence. Within the FISH spot, IR intensity was measured using the measure tool.
# To estimate the number of IR puncta at the plasma membrane, cytoplasm, nucleus or in entire cells, IR puncta were initially counted in a cell slice using Fiji. The number obtained from the cell slice was then multiplied based on the estimated size of the plasma membrane, cytoplasm, nucleus or entire cell, which were obtained considering the length and width of the cell under investigation and the estimated height (˜5 um). […]
# [1] = insulin resistant HepG2 cells, metformin concentration series (FIG. 5A,B)
# [2] = insulin sensitive HepG2 cells, acute 3 nM insulin
molecule,measurement,setting,value
"CN(C)C(=N)N=C(N)N [metformin, reference compound]",IR condensate rescue,"insulin resistant HepG2 cells, 12.5 uM metformin",significant; also recorded: evident
same,intensity of IR signal in condensates,[1],dose-dependent increase
same,number of IR containing condensates,[1],dose-dependent increase
same,effect on IR condensates,"insulin sensitive HepG2 cells, 50 nM metformin as printed (FIG. 13A)",little or no effect on IR condensates
same,IR signal in puncta,"insulin-resistant IR-GFP HepG2 cells, 12.5 μM metformin, 3 nM insulin 5 min (FIGS. 16D-16E, 30A)",partially restored IR signal in these puncta
same,effect on IR puncta / IR condensates,"insulin-sensitive HepG2 IR-GFP cells with or without metformin (50 μM in FIG. 30B), 3 nM insulin 5 min",little or no effect on IR puncta; also recorded: does not affect IR condensates in insulin sensitive cells
TNFα,insulin-stimulated IR incorporation into puncta,"HepG2 cells, 2 days pathological TNFα or high nutrients, 3 nM insulin 5 min (FIG. 27)",caused a decrease in insulin-stimulated IR incorporation into puncta
"insulin: insulin (Sigma Aldrich, I9278-5ML) used for acute stimulation and chronic physiological or pathological exposure",incorporation of additional IR into condensates/puncta,"insulin resistant HepG2 cells, acute insulin (3 nM)",did not promote incorporation of additional IR into condensates; also recorded: did not promote incorporation of additional IR into puncta
same,IR signal intensity in puncta,[2],caused an increase; also recorded: elevated IR-GFP signal in these puncta; also recorded: promotes an increase in IR-GFP signal in IR puncta
same,number of IR puncta in the cytoplasm and nucleus,[2],caused an increase; also recorded: increased numbers of cytoplasmic and nuclear puncta; also recorded: an increase in the number of IR puncta in the nucleus and cytoplasm
same,IR-incorporation into condensates over a range of insulin concentrations,"insulin-sensitive cells, 0, 0.1, 1, 10, 100 nM insulin 5 min (FIGS. 17G-17H)",non-linear transition
